These results are taken from paper PMC12380353, “MK-8527 is a novel inhibitor of HIV-1 reverse transcriptase translocation with potential for extended-duration dosing” (PLOS Biology, 2025).

Like-named read-outs stand apart in the source and are kept apart here.

Data set [1] deals with HIV-1. In words: microbe, parasite or virus in culture.
Method: IC50 values were determined, and a persistence ratio was calculated for each compound.
Assay media in each well were then evacuated and the cells resuspended using the gentle setting on the BlueWasher (BlueCatBio; Lebanon, NH, USA). Centrifugation and wash steps were repeated to ensure removal of extracellular compound.
MT4-GFP cells were infected with WT R8 virus, and PBMCs were infected with pNLG1-P2A-GFP. […] IC50 values were determined by nonlinear 4-parameter curve fitting of the data. A persistence ratio was calculated for each compound by dividing the IC50 from variable B (IC50B) by the IC50 from variable A (IC50A).
The nature of data set [2]: CellTiter-Glo (CTG) cytotoxicity in MT4-GFP cells. The note with it: human. On the technique in general: In ATP-based viability assays light output follows the ATP content of the culture.
Data set [3] deals with T1, HIV-1 RT (Human immunodeficiency virus type 1 group M subtype B, UniProt P04585).
T1 construct: Full-length WT RT protein was expressed in Escherichia coli BL21(DE3) cells; made in house; host or cells: Escherichia coli BL21(DE3)
In words: HIV-1 RT biochemical (ECL) assay. The note with it: purified recombinant RT, n = 8; read-out: IC50, RNA-dependent DNA polymerization. As for the experimental part:
Full-length WT RT protein was expressed in Escherichia coli BL21(DE3) cells and purified as described previously. The electrochemiluminescence (ECL) RT biochemical assay was performed based on the previously described protocol.
Briefly, the heterodimeric nucleic acid substrate used in the HIV-1 RT polymerase reactions was generated by annealing biotinylated DNA primer to a 500-nucleotide RNA template. The HIV-1 RT enzyme (final concentration of 50 pM) was combined with an inhibitor or DMSO (10% DMSO in the final reaction mixture) in assay buffer containing 62.5 mM Tris-HCl, pH 7.8, 1.25 mM dithiothreitol, 7.5 mM MgCl2, 100 mM KCl, 0.03% 3-[(3-cholamidopropyl)-dimethylammonio]-1-propanesulfonate, and 0.125 mM ethylene glycol tetraacetic acid). This mixture was preincubated for 30 min at room temperature in microtiter plates. The polymerization reaction was initiated by the addition of template:primer substrate (final concentration, 16.6 nM), and dNTPs (final concentrations were 2 μM for deoxycytidine triphosphate [dCTP], deoxyguanosine triphosphate [dGTP], and dATP and 66.6 nM for ruthenylated deoxyuridine triphosphate [Ru-dUTP]). […] The mixtures were incubated at room temperature for 60 min prior to the quantification of the reaction product via an ECL 6000 imager instrument. […]

Data set [4] has as its target human DNA polymerase β (Homo sapiens, UniProt P06746). In words: Human DNA polymerase β inhibition assay. Type of data set: biochemical. Particulars: highest concentration tested 200 µM. As for the experimental part:
(§1) The activities of human DNA polymerases α, β, and γ were measured in radiolabeled nucleotide incorporation assays. TP was prepared as a 10-point titration with 3-fold serial dilution in water. Reaction buffers for the DNA polymerase α and β assays both contained 20 mM Tris pH 7.5, 10 mM MgCl2, 50 μM EDTA, 200 μg/mL bovine serum albumin (BSA), 2 mM dithiothreitol (DTT), 1.6 μM each of dNTP (dATP, dCTP, dGTP, and dTTP), 20 μCi/mL [α33P]dATP, 0.1 mg/mL gapped activated fish sperm DNA template, test compound, and 0.005 U/μL DNA polymerase α or 0.0025 U/μL DNA polymerase β. The reaction buffer for DNA polymerase γ contained 20 mM Tris pH 8, 10 mM MgCl2, 50 mM KCl, 100 μg/mL BSA, 2 mM β-mercaptoethanol, 10 μM of each dNTP (dATP, dCTP, dGTP, and dTTP), 20 μCi/mL [α33P]dATP, 0.04 mg/mL gapped activated fish sperm DNA template, test compound, and 0.0003 μg/μL DNA polymerase γ. The 50-μL reactions were incubated at room temperature for 30 min (for β and γ) or 90 min (for α) before terminating with the addition of 50 μL 500 mM EDTA. The reaction mixtures were transferred to a Millipore DE81 filter plate (EMD Millipore; Hayward, CA), washed with 0.5 M sodium phosphate pH 7.0, and dried. After addition of 40 μL scintillant to each well, the incorporation of labeled dATP was determined with a microplate counter (TopCount NXT HTS; PerkinElmer, Shelton, CA, USA).

For data set [5], the target named is T2, human mitochondrial DNA polymerase γ (Homo sapiens, UniProt P54098).
T2 sequence (P54098 1-1239): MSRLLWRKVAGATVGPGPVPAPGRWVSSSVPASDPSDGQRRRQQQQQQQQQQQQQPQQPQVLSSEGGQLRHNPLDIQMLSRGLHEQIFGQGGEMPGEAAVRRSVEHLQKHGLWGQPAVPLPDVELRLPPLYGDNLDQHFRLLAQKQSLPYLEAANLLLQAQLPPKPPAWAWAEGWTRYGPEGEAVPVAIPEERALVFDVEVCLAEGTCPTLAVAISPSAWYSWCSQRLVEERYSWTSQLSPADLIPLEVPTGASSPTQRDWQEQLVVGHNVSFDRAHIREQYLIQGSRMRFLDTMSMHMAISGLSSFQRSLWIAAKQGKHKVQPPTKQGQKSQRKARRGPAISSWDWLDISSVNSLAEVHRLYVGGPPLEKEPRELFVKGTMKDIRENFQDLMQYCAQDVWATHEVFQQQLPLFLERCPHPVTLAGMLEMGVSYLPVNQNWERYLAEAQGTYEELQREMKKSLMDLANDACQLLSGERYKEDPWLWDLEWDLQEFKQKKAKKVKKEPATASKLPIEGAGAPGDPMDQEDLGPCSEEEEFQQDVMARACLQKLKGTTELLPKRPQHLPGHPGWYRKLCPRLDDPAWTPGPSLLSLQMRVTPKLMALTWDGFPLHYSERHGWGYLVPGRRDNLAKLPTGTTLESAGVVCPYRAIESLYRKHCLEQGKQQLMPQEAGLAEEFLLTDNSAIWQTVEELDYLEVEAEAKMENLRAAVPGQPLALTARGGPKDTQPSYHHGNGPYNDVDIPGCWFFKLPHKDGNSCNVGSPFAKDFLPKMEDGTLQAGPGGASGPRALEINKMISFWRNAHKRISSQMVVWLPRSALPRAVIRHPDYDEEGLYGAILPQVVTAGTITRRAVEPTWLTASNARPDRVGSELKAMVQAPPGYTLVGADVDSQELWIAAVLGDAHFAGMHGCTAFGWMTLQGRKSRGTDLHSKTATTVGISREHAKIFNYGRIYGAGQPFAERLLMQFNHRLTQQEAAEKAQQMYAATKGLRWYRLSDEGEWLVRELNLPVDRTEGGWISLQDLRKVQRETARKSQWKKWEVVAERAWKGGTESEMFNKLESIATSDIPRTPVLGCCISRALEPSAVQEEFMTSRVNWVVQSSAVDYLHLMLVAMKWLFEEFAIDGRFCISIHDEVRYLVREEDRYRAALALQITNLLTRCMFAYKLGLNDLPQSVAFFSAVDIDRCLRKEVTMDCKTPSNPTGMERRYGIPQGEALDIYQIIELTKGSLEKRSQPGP
In words: Human mitochondrial DNA polymerase γ inhibition assay. The data set is classed as biochemical. Particulars: highest concentration tested 200 µM. As for the experimental part:
as §1

As usually defined, the CC50 is the concentration that lowers cell viability or growth by half. A high value points to better tolerance by the cells.

For the compound `C#C[C@]1(CO)O[C@@H](n2ccc3c(N)nc(Cl)nc32)C[C@@H]1O` [Compound 12, (2R,3S,5R)-5-(4-amino-2-chloro-7H-pyrrolo[2,3-d]pyrimidin-7-yl)-2-ethynyl-2-(hydroxymethyl)tetrahydrofuran-3-ol], the IC50 was found to be 223 ± 104 nM in data set [1] (Human immunodeficiency virus 1, 48 h, read-out: Persistence assay IC50B, MT4-GFP cells) and 7.2 ± 2.3 nM in data set [1] (Human immunodeficiency virus 1, read-out: Persistence assay IC50A, MT4-GFP cells). Besides, the CC50 in data set [2] is over 42000 nM.
On to `C#C[C@]1(COP(=O)(O)OP(=O)(O)OP(=O)(O)O)O[C@@H](n2ccc3c(N)nc(Cl)nc32)C[C@@H]1O` [MK-8527-TP], for which, in data set [3], the IC50 amounted to 813 ± 238 nM. For the same compound, the Inhibitory activity result in data set [4] and in data set [5] was “no inhibitory activity” in each case.
